Results on twelve molecules are retold here after patent US7799814B2, “Thiazole derivatives and use thereof” (Merck Serono S.A., priority 2005, dated 2010).

Structures are written as SMILES. pIC50: −log10 of the molar value.

The first assay deals with Human recombinant GST-PI3Kγ (Homo sapiens, UniProt P48736). In words: High Throughput PI3K Lipid Kinase Assay (scintillation proximity assay, neomycin-coated SPA beads). The class given is biochemical.
Sequence of Human recombinant GST-PI3Kγ (P48736 whole entry): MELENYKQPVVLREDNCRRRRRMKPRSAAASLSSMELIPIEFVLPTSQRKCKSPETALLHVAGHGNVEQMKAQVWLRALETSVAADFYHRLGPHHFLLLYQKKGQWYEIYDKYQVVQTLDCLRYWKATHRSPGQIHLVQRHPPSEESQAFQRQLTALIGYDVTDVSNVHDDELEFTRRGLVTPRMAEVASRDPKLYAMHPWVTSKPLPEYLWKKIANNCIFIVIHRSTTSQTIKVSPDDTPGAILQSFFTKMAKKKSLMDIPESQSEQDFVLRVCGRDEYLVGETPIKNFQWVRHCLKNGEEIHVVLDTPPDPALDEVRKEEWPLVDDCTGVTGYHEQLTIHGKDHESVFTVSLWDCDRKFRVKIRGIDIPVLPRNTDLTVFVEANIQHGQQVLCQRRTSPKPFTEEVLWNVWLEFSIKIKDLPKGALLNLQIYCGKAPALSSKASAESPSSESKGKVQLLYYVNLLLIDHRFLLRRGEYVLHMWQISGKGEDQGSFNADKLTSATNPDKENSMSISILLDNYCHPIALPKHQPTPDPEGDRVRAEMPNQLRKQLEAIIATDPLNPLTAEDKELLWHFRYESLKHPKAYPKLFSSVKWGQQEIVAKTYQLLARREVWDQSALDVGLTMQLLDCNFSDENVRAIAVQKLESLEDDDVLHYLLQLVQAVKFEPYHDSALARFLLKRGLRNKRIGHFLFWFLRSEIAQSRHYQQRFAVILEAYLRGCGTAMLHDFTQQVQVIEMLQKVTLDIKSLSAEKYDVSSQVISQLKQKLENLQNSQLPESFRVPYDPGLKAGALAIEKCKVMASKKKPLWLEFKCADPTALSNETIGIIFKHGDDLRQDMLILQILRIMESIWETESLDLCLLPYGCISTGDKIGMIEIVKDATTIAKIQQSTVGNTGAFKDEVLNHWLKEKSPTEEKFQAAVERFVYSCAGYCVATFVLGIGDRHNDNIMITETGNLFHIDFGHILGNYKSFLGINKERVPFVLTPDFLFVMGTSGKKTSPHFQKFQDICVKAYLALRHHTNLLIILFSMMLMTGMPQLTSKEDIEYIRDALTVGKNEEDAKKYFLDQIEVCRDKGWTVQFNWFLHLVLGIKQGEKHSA
Conditions: not given
The text has this: a) High Throughput PI3K Lipid Kinase Assay (Binding Assay):
The efficacy of compounds of the invention in inhibiting the PI3K induced-lipid phosphorylation may be tested in the following binding assay.
The assay combines the scintillation proximity assay technology (SPA, Amersham) with the capacity of neomycin (a polycationic antibiotic) to bind phospholipids with high affinity and specificity. The Scintillation Proximity Assay is based on the properties of weakly emitting isotopes (such as ^3H, ^125I, ^33P). Coating SPA beads with neomycin allows the detection of phosphorylated lipid substrates after incubation with recombinant PI3K and radioactive ATP in the same well, by capturing the radioactive phospholipids to the SPA beads through their specific binding to neomycin.
To a 384 wells MTP containing 5 μl of the test compound of Formula (I) (solubilized in 6% DMSO; to yield a concentration of 100, 30, 10, 3, 1, 0.3, 0.1, 0.03, 0.01, 01 μM of the test compound), the following assay components are added. 1) 5 μl (58 ng) of Human recombinant GST-PI3Kγ (in Hepes 40 mM, pH 7.4, DTT 1 mM and ethylenglycol 5%) 2) 10 μl of lipid micelles and 3) 10 μl of Kinase buffer ([^33P]γ ATP. 45 μM/60 nCi, MgCl mM, DTT 1 mM, β Glycerophosphate 1 mM, NVO4 100 μM, Na Cholate 0.3%, in Hepes 40 mM, pH 7.4). After incubation at room temperature for 180 minutes, with gentle agitation, the reaction is stopped by addition of 60 μl of a solution containing 100 μg of neomycin-coated PVT SPA beads in PBS containing ATP 10 mM and EDTA 5 mM. The assay is further incubated at room temperature for 60 minutes with gentle agitation to allow binding of phospholipids to neomycin-SPA beads. After precipitation of the neomycin-coated PVT SPA beads for 5 minutes at 1500×g, radioactive PtdIns(3)P is quantified by scintillation counting in a Wallac MicroBeta™ plate counter.
The values indicated in Table I below refer to the IC50 (μM) with respect to PI3Kγ, i.e. the amount necessary to achieve 50% inhibition of said target. Said values show a considerable inhibitory potency of thiazole compounds with regard to PI3Kγ.
For orientation: pIC50 means the IC50 on a negative log10 scale, so that one unit is a factor of ten. For `CC(=O)Nc1nc(C)c(-c2csc(Cc3nnn[nH]3)n2)s1` [Example 23, N-[4′-methyl-2-(2H-tetrazol-5-ylmethyl)-4,5′-bi-1,3-thiazol-2′-yl]acetamide], the pIC50 was 6.48. As for `CC(=O)Nc1nc(C)c(-c2csc(C(=O)N3CCN(C)CC3)n2)s1` [Example 9, N-{4′-methyl-2-[(4-methylpiperazin-1-yl)carbonyl]-4,5′-bi-1,3-thiazol-2′-yl}acetamide], the pIC50 was 6.22. For `CCOC(=O)c1nc(-c2sc(NC(C)=O)nc2C)cs1` [Example 1, Ethyl 2′-(acetylamino)-4′-methyl-4,5′-bi-1,3-thiazole-2-carboxylate], the pIC50 was 6.06.

`COCCNC(=O)Nc1nc(C)c(-c2csc(C(=O)N3CCOCC3)n2)s1` [Example 36, N-(2-methoxyethyl)-N′-[4′-methyl-2-(morpholin-4-ylcarbonyl)-4,5′-bi-1,3-thiazol-2′-yl]urea]: the pIC50 is 6.10. For the molecule `CC(=O)Nc1nc(C)c(-c2csc(C(=O)N3CCOCC3)n2)s1` [Example 8, N-[4′-methyl-2-(morpholin-4-ylcarbonyl)-4,5′-bi-1,3-thiazol-2′-yl]acetamide], the pIC50 is 6.73. On the same count and under the same terms, for `CC(=O)Nc1nc(C)c(-c2csc(C(=O)NCCCN(C)C)n2)s1` [Example 10, 2′-(Acetylamino)-N-[3-(dimethylamino)propyl]-4′-methyl-4,5′-bi-1,3-thiazole-2-carboxamide] the value was 5.66; for `CC(=O)Nc1nc(C)c(-c2csc(C(=O)Nc3nnn[nH]3)n2)s1` [Example 13, 2′-(acetylamino)-4′-methyl-N-1H-tetrazol-5-yl-4,5′-bi-1,3-thiazole-2-carboxamide], 7.89.

`CC(=O)Nc1nc(C)c(-c2csc(C(=O)Nc3cccc(-c4nnc(N)s4)c3)n2)s1` [Example 25, 2′-(acetylamino)-N-[3-(5-amino-1,3,4-thiadiazol-2-yl)phenyl]-4′-methyl-4,5′-bi-1,3-thiazole-2-carboxamide]: the pIC50 is 5.81. `CCOC(=O)c1nc(-c2sc(Nc3cnccn3)nc2C)cs1` [Example 54, Ethyl 4′-methyl-2′-(pyrazin-2-ylamino)-4,5′-bi-1,3-thiazole-2-carboxylate]: the pIC50 was 5.85. Consider `CC(=O)Nc1nc(C)c(-c2csc(C(=O)NCC3CCCO3)n2)s1` (stereo not shown) [Example 6, 2′-(Acetylamino)-4′-methyl-N-(tetrahydrofuran-2-ylmethyl)-4,5′-bi-1,3-thiazole-2-carboxamide], for which the pIC50 was 6.45. On to `CC(=O)Nc1nc(C)c(-c2csc(C(=O)O)n2)s1` [Example 4, 2′-(Acetylamino)-4′-methyl-4,5′-bi-1,3-thiazole-2-carboxylic acid], for which the pIC50 was 6.31.

For another assay, the system named is Akt/PKB phosphorylation in Raw 264-7 macrophages. In words: Cell based ELISA to monitor PI3K inhibition: Akt/PKB phosphorylation in macrophages after stimulation with Complement 5a. The following applies: Mus musculus, RAW264.7, 50 nM Complement 5a stimulation, phospho Serine 473 Akt, read-out: Cell Assay (P-Akt, Elisa) IC50. As for the experimental part:
b) Cell Based ELISA to Monitor PI3K Inhibition:
The efficacy of compounds of the invention in inhibiting the PI3K induced Akt/PKB phosphorylation may be tested in the following cell based assay.
Measurement of Akt/PKB phosphorylation in macrophages after stimulation with Complement 5a: Raw 264: Raw 264-7 macrophages (cultured in DMEM-F12 medium containing 10% Fetal Calf serum and antibiotics) are plated at 20'000 cells/well in a 96 MTP 24 h before cell stimulation. Prior to the stimulation with 50 nM of Complement 5a during 5 minutes, Cells are serum starved for 2 h, and pretreated with inhibitors for 20 minutes. After stimulation cells are fixed in 4% formaldehyde for 20 minutes and washed 3 times in PBS containing 1% Triton X-100 (PBS/Triton). […] Next, phosphorylated Akt/PKB is detected by an overnight incubation at 4° C. with primary antibody (anti phospho Serine 473 Akt IHC, Cell Signaling) diluted 800-fold in PBS/Triton, containing 5% bovine serum albumin (BSA). After 3 washes in PBS/Triton, cells are incubated for 60 minutes with a peroxidase conjugated goat-anti-rabbit secondary antibody ( 1/400 dilution in PBS/Triton, containing 5% BSA), washed 3 times in PBS/Triton, and 2 times in PBS and further incubated in 100 μl of luminescent substrate reagent solution (Pierce) for 2 minutes, followed by the reading (1 s/well). […]
On the technique in general: An ELISA detects its analyte on a solid surface through an enzyme-linked reagent.
On to `CC(=O)Nc1nc(C)c(-c2csc(C(=O)N3CCOCC3)n2)s1` [Example 8, N-[4′-methyl-2-(morpholin-4-ylcarbonyl)-4,5′-bi-1,3-thiazol-2′-yl]acetamide], for which the pIC50 is 6.04.

Turning to `C=CCNC(=O)c1nc(-c2sc(NC(C)=O)nc2C)cs1` [Example 2, 2′-(Acetylamino)-N-allyl-4′-methyl-4,5′-bi-1,3-thiazole-2-carboxamide], the pIC50 was 6.15.
